Measurements as given in PMC6525019 (Cell chemical biology, 2019).

Columns and labels:
RibBX [1] = target: T1, RibBX (Acinetobacter baumannii, UniProt V5V8R9); experiment: isothermal titration calorimetry; format: binding
T1 sequence (V5V8R9 1-373): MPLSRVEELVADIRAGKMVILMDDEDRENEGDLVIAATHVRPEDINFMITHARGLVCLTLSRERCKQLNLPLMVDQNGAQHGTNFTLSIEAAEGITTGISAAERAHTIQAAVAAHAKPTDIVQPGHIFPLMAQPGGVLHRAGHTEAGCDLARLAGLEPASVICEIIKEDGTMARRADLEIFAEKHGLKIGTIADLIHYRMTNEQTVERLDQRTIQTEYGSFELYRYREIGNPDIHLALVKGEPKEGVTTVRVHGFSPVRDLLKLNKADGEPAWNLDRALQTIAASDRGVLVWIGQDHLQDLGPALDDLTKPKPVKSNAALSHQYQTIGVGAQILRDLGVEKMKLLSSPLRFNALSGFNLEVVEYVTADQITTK

RibBX [2] = target: T1, RibBX; experiment: colorimetric DHBPS assay; format: biochemical
[3] = target: A. baumannii RibBX (3,4-dihydroxy-2-butanone 4-phosphate synthase (DHBPS; RibB) fusion protein) (Acinetobacter baumannii ATCC 17978); experiment: SEC
[4] = target: A. baumannii RibBX (3,4-dihydroxy-2-butanone 4-phosphate synthase (DHBPS; RibB) fusion protein) (Acinetobacter baumannii ATCC 17978); experiment: crystal structure

stoichiometry N [3]	stoichiometry N [4]	Compound	Kd (RibBX [1]) [nM]	Ki (RibBX [2]) [µM]
–	–	Cc1cc2nc3c(=O)[nH]c(=O)nc-3n(C[C@H](O)[C@H](O)[C@H](O)COP(=O)(O)O)c2cc1C [FMN]	714	7.8
2	4	A. baumannii RibBX (3,4-dihydroxy-2-butanone 4-phosphate synthase (DHBPS; RibB) fusion protein) (enzyme)	–	–
